The text below walks through data of US11034726B2, “Gene expression inhibitors” (PIVARIS BIOSCIENCE GMBH, priority 2017, dated 2021).

Experiment [1] relates to plasmid-encoded luciferase in HEK293 cells. The experiment can be described thus: Transient transfection of luciferase expression plasmid (CMV promoter) with peptide, luciferase in cell lysates. The settings on record: for luciferase % of DMSO con-: peptide 2 μM, 24 hrs post-transfection, HEK293, relative to DMSO control; for inhibition of luciferase production (in words): peptide transfected with CMV-luciferase plasmid, HEK293, 24 hrs.

Experiment [2] has as its system Escherichia coli. Briefly: Colony formation of E. coli transformed with antibiotic resistance plasmid and peptide. The experiment is classed as cell-based. The text has this: Competent Escherichia coli cells were transformed with a plasmid containing an ampicillin resistance gene or a kanamycin resistance gene and either DMSO as vehicle control or I24. On the next day, number of colonies was reduced in the presence of peptide I24 compared to the vehicle control (FIG. 11).

Experiment [3] deals with Escherichia coli. Briefly: Plasmid copy numbers and β-lactamase mRNA in transformed E. coli by real-time PCR. The experiment is classed as cell-based. The settings on record: normalized to E. coli single-copy gene. Here is the method: Competent Escherichia coli cells were transformed with a plasmid containing an ampicillin resistance gene and peptide I24. After indicated time-points, total plasmid numbers and β-lactamase mRNA levels were determined by real-time PCR normalized to an E. coli single-copy gene.
On the technique in general: In qPCR the cycle at which signal appears reflects the starting amount.

Experiment [4] concerns plasmid-encoded luciferase in CV-1 cells. Briefly: Transfection of CMV-luciferase plasmid in CV-1 cells. Conditions: CV-1, different concentrations. The experiment is classed as cell-based, African Green Monkey. The source says:
(§1) The cell lines African Green Monkey kidney cells CV-1 and COS-7, as well as the human breast cancer cell line MCF-7 and the human colon cancer cell lines HT-29 were transiently transfected with a plasmid containing luciferase under control of a CMV promoter and different concentrations of peptide […].

The test system of experiment [5] is plasmid-encoded luciferase in MCF-7 cells. Briefly: Transfection of CMV-luciferase plasmid in MCF-7 cells. The experiment is classed as cell-based, human. The settings on record: MCF-7, different concentrations.
Source text: as §1

Experiment [6] relates to luciferase under control of the truncated interleukin-8 (IL-8) promoter in HEK293 cells. The experiment can be described thus: Transfection of luciferase under truncated IL-8 promoter, TNF-α stimulation. The experiment is classed as cell-based, human. Conditions: 24 hrs post-transfection, TNF-α 6 hrs after transfection. The text has this: (§2) HEK293 cells were transiently transfected with a construct containing the luciferase coding region under control of the truncated interleukin-8 (IL-8) promoter and peptide I24 and stimulated with tumor necrosis factor (TNF)-α 6 hrs after transfection and analysed 24 hrs post-transfection for expression of luciferase in cell lysates and released IL-8 in the supernatants by ELISA.

Experiment [7] relates to endogenous interleukin-8 in HEK293 cells. The experiment can be described thus: Endogenous IL-8 release by ELISA in transfected, TNF-α-stimulated cells. The experiment is classed as cell-based, human. The settings on record: 24 hrs post-transfection.
Source text: as §2
A general note: An ELISA detects its analyte on a solid surface through an enzyme-linked reagent.

Experiment [8] relates to plasmid-encoded luciferase in COS-7 cells. The experiment can be described thus: Transfection of CMV-luciferase plasmid in COS-7 cells, luciferase protein and mRNA. The experiment is classed as cell-based, African green monkey. Here is the method:
COS-7 African green monkey kidney cells were transfected with an expression plasmid driving luciferase under control of the CMV promoter and luciferase determined in cell lysates. For analysis of expression of luciferase mRNA, total RNA was isolated, treated with DNAse I and subjected to reverse transcription using random hexamers. Real-time PCR was performed with hydrolysis probes detecting luciferase and normalized to 18S rRNA transcript levels.
The cell lines African Green Monkey kidney cells CV-1 and COS-7, as well as the human breast cancer cell line MCF-7 and the human colon cancer cell lines HT-29 were transiently transfected with a plasmid containing luciferase under control of a CMV promoter and different concentrations of peptide I24.

The subject of experiment [9] is plasmid-encoded green fluorescence protein (GFP) in HEK293 cells. The experiment can be described thus: Transfection of GFP expression plasmid, Western blot and GFP-positive cells. The experiment is classed as cell-based, human. Conditions: 2 μM. Background: In western blotting, separated proteins are transferred to a membrane and probed.
The test system of experiment [10] is plasmid-encoded luciferase and neomycin resistance gene mRNA in HEK293 cells. Briefly: Real-time PCR of luciferase (CMV promoter) and neomycin resistance gene (early SV40 promoter) mRNA from one plasmid. The experiment is classed as cell-based, human. The settings on record: increasing concentration, 24 hrs, normalized against GAPDH. Here is the method: HEK293 cells were transiently transfected in the presence of increasing concentrations of peptide I24 with an expression plasmid containing luciferase under control of the CMV promoter and the neomycin resistance gene under control of the early SV40 promoter. After 24 hrs, total RNA was isolated from the cells, digested with DNAse I to remove plasmid-DNA and subjected to reverse transcription. Quantitative real-time PCR analysis of luciferase and neomycin mRNA was performed using hydrolysis probes and normalized against GAPDH transcripts.

Experiment [11] relates to baculovirus encoding luciferase under control of the CMV promoter. Briefly: Baculovirus-mediated luciferase gene expression in HEK293 cells. The experiment is classed as cell-based. The settings on record: HEK293 pretreated for 10 minutes. The method, then:
A baculovirus was generated with the luciferase coding region under control of the CMV promoter integrated in its viral genome. The baculovirus was applied to HEK293 cells pretreated for 10 minutes with DMSO or increasing concentrations of peptide I24, TAT and the fusion peptide TAT-I24. Luciferase expression is reduced in cells treated with cell-permeable fusion peptide TAT-I24 in a dose-dependent manner (FIG. 7a). Baculovirus-infected cells incubated with DMSO, TAT-I24 or TAT were stimulated with TNF-α and total RNA isolated from cells. After treatment of the RNA with DNAse I, reverse transcription was performed. Luciferase and IL-8 mRNA were analysed by real-time PCR.

The subject of experiment [12] is plasmid-encoded luciferase in HT-29 cells. The experiment can be described thus: Transfection of CMV-luciferase plasmid in HT-29 cells. The experiment is classed as cell-based, human. Conditions: HT-29, different concentrations.
Source text: as §1

A further experiment concerns vaccinia virus. The experiment is classed as cell-based. The settings on record: 24 hrs after infection, normalized to GAPDH.

Ends that are not written are not given here.

As to CLAFYACFCGGGCLAFYACFC [I24 dimer], the “luciferase % of DMSO con-” value in experiment [1] stood at 3.8%. For the same substance, the IC50 (in general, the concentration that gives 50% inhibition) in experiment [1] (read-out: IC50 inhibition of plasmid-encoded luciferase levels, transfected together with the plasmid-DNA) amounted to 90 nM.
Regarding CLAYFCFC [I24 M16], the “luciferase % of DMSO con-” value in experiment [1] came to 68.7%.
On the same count and under the same terms, with FYACFAC [I24 M10] the figure was 104.2%.
Regarding “CLAFYACFC (cysteine pairing not given here) [I24]”, the “colony formation, peptide applied after transformation” value in the experiment with Escherichia coli [2] (applied after transformation is completed) is “inactive”. In the experiment with Escherichia coli [2] (peptide applied simultaneously with plasmid (ampicillin or kanamycin resistance gene)), the number of colonies result is “reduced”. The plasmid copy numbers result in the experiment with Escherichia coli [3] (4 and 6 hrs after transformation) is “downregulated”. In addition, in the experiment on Escherichia coli [3], the “β-lactamase mRNA levels” value was “downregulated”. Moreover, the “inhibition of the reporter gene luciferase” value is “Inhibition of the reporter gene luciferase was observed” in experiment [4]; “Inhibition of the reporter gene luciferase was observed” in experiment [5]; “Inhibition of the reporter gene luciferase was observed” in [8] (COS-7, different concentrations); “Inhibition of the reporter gene luciferase was observed” in experiment [12]. Further, in experiment [6], the “TNF-α-induced luciferase expression (IL-8 promoter)” value is “reduced TNF-α-induced luciferase expression”. For the same substance, the “inhibition of reporter gene expression” value was “approximately 90%” in experiment [1] (2 μM) and 90% in experiment [1] (20 μM). Further, the “luciferase % of DMSO con-” value in experiment [1] turned out to be 12.2%. Further, the “inhibition of luciferase production (in words)” value in experiment [1] is recorded as “dose-dependent inhibition of luciferase production”. In addition, the “release of IL-8 (ELISA)” value in experiment [7] is “not affected”. In addition, in experiment [8] (COS-7, different incubation times), the luciferase protein levels entry was “downregulated”. Moreover, the “luciferase mRNA levels” value in experiment [8] (COS-7, normalized to 18S rRNA, different incubation times) is reported as “downregulated”. Also, in experiment [9], the “GFP production by Western blot” value is recorded as “reduced”. In addition, the “number of GFP-positive cells” value in experiment [9] is reported as “reduced”. In addition, the “reduction of luciferase transcripts (CMV promoter)” value in [10] is reported as 87%. In experiment [10], the “reduction of neomycin mRNA levels (early SV40 promoter)” value is listed as “about 50%”. The “baculovirus-mediated luciferase expression (in words)” value in [11] is on record as “only weakly active”.
As to CLAFYCFAC [I24 M14], in experiment [1], the “luciferase % of DMSO con-” value is 63.2%.
On to SLAFYASFS [I24 M4], for which, in [1], the “luciferase % of DMSO con-” value was 100.5%.
Turning to CLAFYACRC [I24 M30], the “luciferase % of DMSO con-” value in experiment [1] was 116.5%.
Turning to SLAFYACFAC [I24 M6], the “luciferase % of DMSO con-” value in experiment [1] was determined as 41.9%.
Consider CLAFYARFC [I24 M29], for which the “luciferase % of DMSO con-” value in experiment [1] stood at 56.3%.
As to CLAFYACLWC [I24 M22], the “luciferase % of DMSO con-” value in experiment [1] stood at 6.8%.
On to “GRKKRRQRRRPPQ [TAT, peptide representing the TAT tag alone, reference compound]”, for which, in [1], the “inhibition of luciferase production (in words)” value was “inactive”. The “rpo22 mRNA levels (in words)” value with vaccinia virus is recorded as “no inhibition”.
Regarding FYACFC [I24 M9], the “luciferase % of DMSO con-” value in [1] is 103.6%.
With SVFYACFAC [I24_M8], the “activity in the cellular transfection assay (in words)” value in experiment [1] (2 μM) is listed as “no inhibitory effect”. In [1], the “luciferase % of DMSO con-” value turned out to be 103.7%.
Consider FYCFC [I24 M18], for which the “luciferase % of DMSO con-” value in experiment [1] is reported as 107.8%.
On to CAAFYACFC [I24 M11], for which the “luciferase % of DMSO con-” value in [1] was found to be 32.2%.
For the substance CLAFYCFC [I24 M13], the “luciferase % of DMSO con-” value in experiment [1] was found to be 64.9%.
For WSEQCFTCWW [reference compound], the “activity in the cellular transfection assay (in words)” value in [1] (2 μM) is “no inhibitory effect”. Further, in [1], the “luciferase % of DMSO con-” value is 106.2%.
With CLVFYACFC [I24 M12], the “luciferase % of DMSO con-” value in experiment [1] turned out to be 11.8%.
CLLYFCFC [I24 M17]: the “luciferase % of DMSO con-” value in [1] amounted to 16.7%.
Regarding FYCFAC [I24_M19], the “luciferase % of DMSO con-” value in experiment [1] is 118.6%.
Still for that read-out and setting: next, CLAFRACFC [I24 M27]: 110.9%.
Same read-out and setting: next, CLAFYACFAC [I24 M5]: 10.6%; CLAFYAC [I24 M2]: 110.1%; CLAFYRCFC [I24 M28]: 93.4%.
Turning to CLAFYACFWC [I24 M20], in [1], the “luciferase % of DMSO con-” value turned out to be 5.6%.
For SVFYACFC [I24 M31], the “luciferase % of DMSO con-” value in experiment [1] is listed as 135.5%.
For CLARYACFC [I24 M26], in experiment [1], the “luciferase % of DMSO con-” value was 128.6%.
Take SAFYACFAC [I24 M7]: in experiment [1], the “luciferase % of DMSO con-” value was 75.9%.
